The source of these data is patent US20180273528A1 (LES LABORATOIRES SERVIER, priority 2015, published 2018).

For orientation: IC50 means the concentration at which inhibition is half-maximal.

Experiment [1] addresses T1, DYRK1A (Homo sapiens, UniProt Q13627). Description: Cellular DYRK1 autophosphorylation assay in U2-OS cells. It is filed as cell-based. More on the design: full-length, wild-type human DYRK1A (NM_001396) with an HA tag; expressed in transfected cells; host or cells: human U2-OS osteosarcoma cells, transient transfection of a pcDNA3.1 plasmid. Conditions: U2-OS cells transfected with HA-tagged human DYRK1A, 5 hours exposure; read-out: IC50 (μM) P-Ser520-Dyrk1A -Cell assay. The method in brief:
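U2-OS cells treated with a compound concentration range for 5 h. Phospho-Ser520-DYRK1A measured by western blot densitometry or Mesoscale ELISA. IC50 from dose-response curves; for blots, ratio of phospho-Ser520 to total DYRK1A signal.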

For another experiment, the target named is T2, CLK1 (Homo sapiens, UniProt P49759).
T2 construct: full-length human kinases from Carna Biosciences; purchased Carna Biosciences 04-126
Description: Kinase TR-FRET assay, CLK1. Conditions: full-length human kinase, 10 μM ATP. It is filed as biochemical. As to the method:
Inhibition of the enzymatic activity of human kinases was evaluated in a Time-Resolved Fluorescence Resonance Energy Transfer (TR-FRET) assay in 384-well reaction plates. […] Test compounds of the invention were added in reaction buffer at a range of concentrations from 0.1 nM to 30 μM. Following addition of EDTA (Sigma E7889, 10 mM) to stop the reaction, Europium-labelled mouse monoclonal antibody recognizing phospho-Thr232 in MBP (Perkin Elmer TRF0201, 1 nM) was added.
Background: Time-resolved FRET reads energy transfer from a long-lived donor to a nearby acceptor.

Experiment [2] concerns the target T3, His-TEV-DYRK1A Kinase domain (aa127-485) (Homo sapiens, UniProt Q13627).
T3 construct: His-TEV-DYRK1A Kinase domain (aa127-485); His tag (N); TEV protease cleavage site (N)
Description: Kinase ADP assay (ADP Hunter), DYRK1A kinase domain. Format: biochemical. To be noted: 20 μM ATP. The method in brief:
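Compounds incubated 10 min at 30 °C with 20 nM enzyme, 40 μM peptide substrate and 20 μM ATP in pH 7.4 Hepes buffer with 10 mM MgCl2. ADP formed detected by ADP Hunter Plus reagents after 20 min at 30 °C, fluorescence read at 590 nm.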

For the next experiment, the target named is T4, DYRK1B (Homo sapiens, UniProt Q9Y463).
T4 construct: full-length human kinases from Carna Biosciences; purchased Carna Biosciences 04-131
Description: Kinase TR-FRET assay, DYRK1B. It is filed as biochemical. To be noted: full-length human kinase, 10 μM ATP. The method in brief: (§1)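 Compounds tested at 0.1 nM to 30 μM in reaction buffer; reaction stopped with 10 mM EDTA. Phosphorylated MBP detected with 1 nM Europium-labelled anti-phospho-Thr232 antibody by TR-FRET.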

Experiment [3] addresses T1, DYRK1A. Description: Kinase TR-FRET assay, DYRK1A. Format: biochemical. Also noted: full-length, wild-type human DYRK1A (NM_001396) with an HA tag; expressed in transfected cells; host or cells: human U2-OS osteosarcoma cells, transient transfection of a pcDNA3.1 plasmid. To be noted: full-length human kinase, 10 μM ATP. The gist of the method: as §1
The next experiment deals with T5, CDK9 (Homo sapiens, UniProt P50750).
T5 construct: full-length human kinases from Carna Biosciences; purchased Carna Biosciences 04-110
Description: Kinase TR-FRET assay, CDK9. It is filed as biochemical. Conditions: full-length human kinase, 10 μM ATP. The method in brief:
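Full-length human CDK9 (0.9 ng/μl) incubated 100 min at room temperature with 10 μM ATP, 100 nM ULight-MBP peptide and compound (0.1 nM–30 μM) in 50 mM HEPES pH 7.4, 1 mM EGTA, 10 mM MgCl2, 2 mM DTT, 0.01% Tween20. Stopped with 10 mM EDTA, then 1 nM Eu-anti-phospho-Thr232 MBP antibody added for 1 h. TR-FRET read at 665/620 nm with 340 nm excitation.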

T5 sequence (P50750 whole entry): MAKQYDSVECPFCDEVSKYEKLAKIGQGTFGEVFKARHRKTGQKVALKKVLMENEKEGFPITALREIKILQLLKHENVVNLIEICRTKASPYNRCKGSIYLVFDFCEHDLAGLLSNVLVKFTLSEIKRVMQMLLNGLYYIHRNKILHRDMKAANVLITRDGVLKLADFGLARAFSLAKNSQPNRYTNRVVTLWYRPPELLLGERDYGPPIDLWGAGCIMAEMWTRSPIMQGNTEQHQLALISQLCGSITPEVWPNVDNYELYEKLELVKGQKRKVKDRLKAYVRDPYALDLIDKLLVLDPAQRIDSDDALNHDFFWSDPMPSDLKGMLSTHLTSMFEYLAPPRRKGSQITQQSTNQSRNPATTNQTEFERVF
T5 sequence (O60563 whole entry partner): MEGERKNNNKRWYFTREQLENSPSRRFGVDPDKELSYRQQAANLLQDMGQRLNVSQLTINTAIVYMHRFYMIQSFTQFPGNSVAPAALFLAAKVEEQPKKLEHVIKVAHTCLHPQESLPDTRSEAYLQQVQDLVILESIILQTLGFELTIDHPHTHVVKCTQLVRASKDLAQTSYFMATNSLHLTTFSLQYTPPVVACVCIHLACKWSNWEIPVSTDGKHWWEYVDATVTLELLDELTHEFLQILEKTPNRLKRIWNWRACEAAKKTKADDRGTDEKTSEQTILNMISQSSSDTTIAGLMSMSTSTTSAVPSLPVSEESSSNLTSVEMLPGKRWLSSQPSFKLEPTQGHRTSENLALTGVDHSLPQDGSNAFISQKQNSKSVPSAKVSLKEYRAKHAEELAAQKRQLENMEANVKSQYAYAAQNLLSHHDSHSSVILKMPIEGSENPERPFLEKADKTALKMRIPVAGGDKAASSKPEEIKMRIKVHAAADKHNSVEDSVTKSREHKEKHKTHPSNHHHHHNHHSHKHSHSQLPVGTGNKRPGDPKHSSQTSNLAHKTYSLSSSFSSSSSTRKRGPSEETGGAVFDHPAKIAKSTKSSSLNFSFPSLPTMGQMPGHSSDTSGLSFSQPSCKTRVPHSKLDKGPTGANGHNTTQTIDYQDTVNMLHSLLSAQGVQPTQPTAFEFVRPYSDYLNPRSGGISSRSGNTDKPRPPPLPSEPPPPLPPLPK
T4 sequence (Q9Y463 whole entry): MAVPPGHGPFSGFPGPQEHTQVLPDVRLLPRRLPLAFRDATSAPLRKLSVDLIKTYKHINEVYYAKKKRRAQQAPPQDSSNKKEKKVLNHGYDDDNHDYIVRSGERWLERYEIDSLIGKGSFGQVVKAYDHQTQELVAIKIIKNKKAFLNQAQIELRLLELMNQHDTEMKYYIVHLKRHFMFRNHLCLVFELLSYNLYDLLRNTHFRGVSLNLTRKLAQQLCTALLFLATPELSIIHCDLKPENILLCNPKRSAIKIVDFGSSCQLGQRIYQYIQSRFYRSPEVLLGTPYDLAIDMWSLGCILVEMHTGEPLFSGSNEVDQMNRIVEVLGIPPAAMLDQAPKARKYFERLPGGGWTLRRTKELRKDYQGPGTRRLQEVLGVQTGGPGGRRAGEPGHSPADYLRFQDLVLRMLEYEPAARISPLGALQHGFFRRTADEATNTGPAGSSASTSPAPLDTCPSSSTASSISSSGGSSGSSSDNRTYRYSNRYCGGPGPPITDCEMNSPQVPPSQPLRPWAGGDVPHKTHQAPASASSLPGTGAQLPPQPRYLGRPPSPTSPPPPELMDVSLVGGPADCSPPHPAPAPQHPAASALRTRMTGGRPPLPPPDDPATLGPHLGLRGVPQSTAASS
T2 sequence (P49759 1-526 isoform P49759-3): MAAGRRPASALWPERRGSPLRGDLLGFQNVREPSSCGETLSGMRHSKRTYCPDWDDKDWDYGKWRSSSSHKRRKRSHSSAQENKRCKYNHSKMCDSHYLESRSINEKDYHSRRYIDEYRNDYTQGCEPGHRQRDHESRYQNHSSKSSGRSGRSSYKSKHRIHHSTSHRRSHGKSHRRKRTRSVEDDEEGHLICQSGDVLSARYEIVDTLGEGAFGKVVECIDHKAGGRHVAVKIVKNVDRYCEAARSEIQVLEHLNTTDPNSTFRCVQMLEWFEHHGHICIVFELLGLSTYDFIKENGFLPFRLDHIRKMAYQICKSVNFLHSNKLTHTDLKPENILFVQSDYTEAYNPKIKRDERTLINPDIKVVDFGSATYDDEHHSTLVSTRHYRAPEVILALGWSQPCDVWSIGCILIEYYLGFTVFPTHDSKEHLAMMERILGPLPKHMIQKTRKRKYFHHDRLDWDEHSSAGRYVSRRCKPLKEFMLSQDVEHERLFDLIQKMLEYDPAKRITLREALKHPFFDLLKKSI

Take `Cc1nc2ccc(-c3cc(N)nc(N)c3)nc2n1C[C@@H]1C[C@H]1c1ccccc1` (single isomer, unassigned) [Example 110]: the results for the IC50 (on DYRK1A [1]; at CLK1; in experiment [2]) were 0.042 µM, 0.02 µM and 0.019 µM, respectively.

Consider `Cc1nc2ccc(-c3cc(N)nc(N)c3)nc2n1CCC1CCOCC1` [Example 78, 4-{2-methyl-3-[2-(tetrahydro-2H-pyran-4-yl)ethyl]-3H-imidazo[4,5-b]pyridin-5-yl}pyridine-2,6-diamine], for which the IC50 is 0.133 µM on DYRK1A [1], 0.018 µM at CLK1 and 0.025 µM in experiment [2].

With `Cc1nc2ccc(-c3cc(N)nc(N)c3)nc2n1CCc1ccccc1C(F)(F)F` [Example 79, 4-(2-methyl-3-{2-[2-(trifluoromethyl)phenyl]ethyl}-3H-imidazo[4,5-b]pyridin-5-yl)pyridine-2,6-diamine], the IC50 at DYRK1A [1] came to 0.068 µM; against CLK1, 0.014 µM; in experiment [2], 0.021 µM.

Turning to `COc1ccccc1CCn1c(C)nc2ccc(-c3cc(N)nc(N)c3)nc21` [Example 81, 4-{3-[2-(2-methoxyphenyl)ethyl]-2-methyl-3H-imidazo[4,5-b]pyridin-5-yl}pyridine-2,6-diamine], the IC50 is 0.094 µM on DYRK1A [1], 0.015 µM against CLK1 and 0.021 µM in experiment [2].

Regarding `CCOc1cccc(CCn2c(C)nc3ccc(-c4cc(N)nc(N)c4)nc32)c1` [Example 90, 4-{3-[2-(3-ethoxyphenyl)ethyl]-2-methyl-3H-imidazo[4,5-b]pyridin-5-yl}pyridine-2,6-diamine], the IC50 at DYRK1A [1] turned out to be 0.129 µM; on CLK1, 0.016 µM; in experiment [2] it was 0.015 µM.

As to `Cc1nc2ccc(-c3cc(N)nc(N)c3)nc2n1CC1CC1c1ccccc1` (stereo not drawn) [Example 97, 4-{2-methyl-3-[(2-phenylcyclopropyl)methyl]-3H-imidazo[4,5-b]pyridin-5-yl}pyridine-2,6-diamine], the IC50 on DYRK1A [1] came to 0.097 µM; at CLK1, 0.021 µM; in experiment [2], 0.015 µM.

In the case of `COc1ccc2c(c1)CC(n1c(C)nc3ccc(-c4cc(N)nc(N)c4)nc31)C2` (stereo not drawn) [Example 98, 4-[3-(5-methoxy-2,3-dihydro-1H-inden-2-yl)-2-methyl-3H-imidazo[4,5-b]pyridin-5-yl]pyridine-2,6-diamine], the IC50 is 0.019 µM at DYRK1A [1]; 0.015 µM against CLK1; 0.007 µM in experiment [2]; 0.009 µM against DYRK1B; 0.004 µM against DYRK1A [3].

With `Cc1nc2ccc(-c3cc(N)nc(N)c3)nc2n1C1CC(c2ccccc2)C1` (stereo not drawn) [Example 100, 4-[2-methyl-3-(3-phenylcyclobutyl)-3H-imidazo[4,5-b]pyridin-5-yl]pyridine-2,6-diamine], the results for the IC50 (on DYRK1A [1]; at CLK1; in experiment [2]) were 0.006 µM, 0.014 µM and 0.006 µM, respectively.

On to `Cc1nc2ccc(-c3cc(N)nc(N)c3)nc2n1CCC(F)(F)F` [Example 108, 4-[2-methyl-3-(3,3,3-trifluoropropyl)-3H-imidazo[4,5-b]pyridin-5-yl]pyridine-2,6-diamine], for which the IC50 at DYRK1A [1] is 0.109 µM; against CLK1, 0.026 µM; in experiment [2] it was 0.017 µM.

On to `Cc1nc2ccc(-c3cc(N)nc(N)c3)nc2n1CC1Cc2ccccc2C1` [Example 114, 4-[3-(2,3-dihydro-1H-inden-2-ylmethyl)-2-methyl-3H-imidazo[4,5-b]pyridin-5-yl]pyridine-2,6-diamine], for which the half-inhibitory concentration (IC50) at DYRK1A [1] came out at 0.039 µM; against CLK1 it was 0.019 µM; in experiment [2], 0.005 µM; against DYRK1B it was 0.009 µM; on DYRK1A [3], 0.005 µM.

Take `CCCCc1nc2ccc(-c3cc(N)nc(N)c3)nc2n1C1CCCC1` [Example 145, 4-(2-butyl-3-cyclopentyl-3H-imidazo[4,5-b]pyridin-5-yl)pyridine-2,6-diamine]: the IC50 was 0.171 µM at DYRK1A [1], 0.115 µM against CLK1 and 0.03 µM in experiment [2].

For `COc1cccc(CCn2c(C)nc3ccc(-c4cc(N)nc(N)c4)nc32)c1` [Example 152, 4-{3-[2-(3-methoxyphenyl)ethyl]-2-methyl-3H-imidazo[4,5-b]pyridin-5-yl}pyridine-2,6-diamine], the IC50 was 0.22 µM at DYRK1A [1]; 0.012 µM in experiment [2]; above 10 µM against CDK9; 0.007 µM on DYRK1B; 0.002 µM at DYRK1A [3].

As to `CCc1nc2ccc(-c3cc(N)nc(N)c3)nc2n1C1CCCC1` [Example 156, 4-(3-cyclopentyl-2-ethyl-3H-imidazo[4,5-b]pyridin-5-yl)pyridine-2,6-diamine], the 50% inhibitory concentration (IC50) at DYRK1A [1] is 0.151 µM; in experiment [2], 0.017 µM; against CDK9, 0.554 µM; on DYRK1B, 0.016 µM; against DYRK1A [3] it was 0.013 µM.

With `Cc1nc2ccc(-c3cc(N)nc(N)c3)nc2n1CCOc1ccc(F)cc1` [Example 198, 4-{3-[2-(4-fluorophenoxy)ethyl]-2-methyl-3H-imidazo[4,5-b]pyridin-5-yl}pyridine-2,6-diamine], the results for the IC50 (on DYRK1A [1]; on CLK1; in experiment [2]) were 0.092 µM, 0.017 µM and 0.025 µM, respectively.

`COc1cccc(OCCn2c(C)nc3ccc(-c4cc(N)nc(N)c4)nc32)c1` [Example 202, 4-{3-[2-(3-methoxyphenoxy)ethyl]-2-methyl-3H-imidazo[4,5-b]pyridin-5-yl}pyridine-2,6-diamine]: the IC50 on DYRK1A [1] was determined as 0.18 µM; at CLK1, 0.018 µM; in experiment [2], 0.023 µM.

`Cc1nc2ccc(-c3cc(N)nc(N)c3)nc2n1CCOc1ccccc1F` [Example 203, 4-{3-[2-(2-fluorophenoxy)ethyl]-2-methyl-3H-imidazo[4,5-b]pyridin-5-yl}pyridine-2,6-diamine]: the IC50 on DYRK1A [1] turned out to be 0.148 µM; against CLK1 it was 0.016 µM; in experiment [2] it was 0.017 µM.

Take `Cc1nc2ccc(-c3cc(N)nc(N)c3)nc2n1CCOc1ccc(Cl)cc1` [Example 207, 4-{3-[2-(4-chlorophenoxy)ethyl]-2-methyl-3H-imidazo[4,5-b]pyridin-5-yl}pyridine-2,6-diamine]: the IC50 at DYRK1A [1] came out at 0.12 µM; at CLK1, 0.021 µM; in experiment [2], 0.026 µM.

Turning to `Cc1nc2ccc(-c3cc(N)nc(N)c3)nc2n1CCOc1ccccn1` [Example 217, 4-{2-methyl-3-[2-(pyridin-2-yloxy)ethyl]-3H-imidazo[4,5-b]pyridin-5-yl}pyridine-2,6-diamine], the IC50 on DYRK1A [1] is 0.089 µM; in experiment [2] it was 0.01 µM; at CDK9, 0.881 µM; on DYRK1B, 0.008 µM; against DYRK1A [3], 0.006 µM.

`CCn1c(C#N)nc2ccc(-c3cc(N)nc(N)c3)nc21` [Example 223, 5-(2,6-diaminopyridin-4-yl)-3-ethyl-3H-imidazo[4,5-b]pyridine-2-carbonitrile]: the IC50 on DYRK1A [1] amounted to 0.097 µM; on CLK1, 0.02 µM; in experiment [2], 0.009 µM.

With `N#Cc1nc2ccc(-c3cc(N)nc(N)c3)nc2n1C1CC1` [Example 224, 3-cyclopropyl-5-(2,6-diaminopyridin-4-yl)-3H-imidazo[4,5-b]pyridine-2-carbonitrile], the IC50 at DYRK1A [1] was 0.057 µM; against CLK1, 0.02 µM; in experiment [2] it was 0.009 µM.

For `C=CCn1c(C#N)nc2ccc(-c3cc(N)nc(N)c3)nc21` [Example 225, 5-(2,6-diaminopyridin-4-yl)-3-(prop-2-en-1-yl)-3H-imidazo[4,5-b]pyridine-2-carbonitrile], the IC50 against CLK1 is 0.021 µM; in experiment [2], 0.012 µM.

In the case of `Cn1c(C#N)nc2ccc(-c3cc(N)nc(N)c3)nc21` [Example 227, 5-(2,6-diaminopyridin-4-yl)-3-methyl-3H-imidazo[4,5-b]pyridine-2-carbonitrile], the 50% inhibitory concentration (IC50) worked out at 0.262 µM on DYRK1A [1], 0.042 µM against CLK1 and 0.01 µM in experiment [2].
